# From patent US10501493B2, “Broad spectrum antibiotics” (priority 2011, dated 2019)
# Where two headings read alike, the source gives them in different places.
# Key:
# C. glutamicum DSM 44475 = test: In vitro antimicrobial activity, MIC by broth micro-dilution; format: cell-based; details: Corynebacterium glutamicum, DSM44475, read-out: MIC
# [1] = tested on: E. coli MIG1655 LepB(P84L); test: as above; format: cell-based; details: Escherichia coli
# How it was run: (§1)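 CLSI broth micro-dilution MIC against two-fold serial compound dilutions. Inoculum came from colonies grown 24 h at 35° C. or 28° C., suspended in cation-adjusted Mueller Hinton broth at 1*10^7 CFU/ml, of which 5 μl was added per 100 μl well. LepB(P84L) is a proline-mutant SPase strain with heightened arylomycin susceptibility.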
# [2] = tested on: P. aeruginosa PA01 LepB(P84L); test: as above; format: cell-based; details: Pseudomonas aeruginosa
# How it was run: as §1
# R. equi DSM 6939 = test: as above; format: cell-based; details: Rhodococcus (subgen. Prescottella) equi, DSM6939, read-out: MIC
# How it was run: as §1
# S. agalactiae ATCC 13813 = test: as above; format: cell-based; details: Streptococcus agalactiae, ATCC13813, read-out: MIC
# S. agalactiae COH-1 = test: as above; format: cell-based; details: Streptococcus agalactiae, COH1; S. agalactiae COH-1; read-out: MIC
# S. aureus ATCC 29213 = test: as above; format: cell-based; details: Staphylococcus aureus, ATCC29213, read-out: MIC
# [3] = tested on: S. aureus NCTC-8325 SpsB(P295); test: as above; format: cell-based; details: for MIC: Staphylococcus aureus
# [4] = tested on: S. epidermidis ATCC 12228; test: as above; format: cell-based; details: Staphylococcus epidermidis, ATCC12228, read-out: MIC
# [5] = tested on: S. epidermidis RP62A SpsIB(S29P); test: as above; format: cell-based; details: Staphylococcus epidermidis
# [6] = tested on: S. epidermidis RP62A SpsIB(S31P); test: as above; format: cell-based; details: Staphylococcus epidermidis
# S. epidermidis RP62A = test: as above; format: cell-based; details: for MIC: Staphylococcus epidermidis
# S. pneumoniae D39 = test: as above; format: cell-based; details: for MIC: Streptococcus pneumoniae
# S. pneumoniae R800 = test: as above; format: cell-based; details: Streptococcus pneumoniae, read-out: MIC
# How it was run: as §1
# S. pyogenes ATCC 19615 = test: as above; format: cell-based; details: Streptococcus pyogenes, ATCC19615, read-out: MIC
# S. pyogenes M15448 = test: as above; format: cell-based; details: Streptococcus pyogenes; S. pyogenes M15448; read-out: MIC
# How it was run: as §1
# E. coli ATCC 25922 = test: as above; format: cell-based; details: for MIC: Escherichia coli, ATCC25922, read-out: MIC class, E. coli ATCC 25922
# [7] = tested on: E. col ATCC 25922 LepB(P84L); test: as above; format: cell-based, E. coli; details: for MIC: Escherichia coli, ATCC25922, read-out: MIC class, E. col ATCC 25922 LepB(P84L)
# How it was run: as §1
# S. aurues NCTC-8325 = test: as above; format: cell-based, S. aureus; details: for MIC: Staphylococcus aureus, NCTC8325, read-out: MIC class, S. aurues NCTC-8325
# E. coli SPase = target: T1, E. coli SPase (Escherichia coli, UniProt P00803); test: Enzymatic fluorogenic substrate cleavage assay for IC50; format: biochemical
# T1 construct: Full length His-tagged E. coli SPase proteins were expressed in E. coli BL21(DE3); His-tag; made in house; host or cells: E. coli BL21(DE3)
# T1 sequence (P00803 whole entry): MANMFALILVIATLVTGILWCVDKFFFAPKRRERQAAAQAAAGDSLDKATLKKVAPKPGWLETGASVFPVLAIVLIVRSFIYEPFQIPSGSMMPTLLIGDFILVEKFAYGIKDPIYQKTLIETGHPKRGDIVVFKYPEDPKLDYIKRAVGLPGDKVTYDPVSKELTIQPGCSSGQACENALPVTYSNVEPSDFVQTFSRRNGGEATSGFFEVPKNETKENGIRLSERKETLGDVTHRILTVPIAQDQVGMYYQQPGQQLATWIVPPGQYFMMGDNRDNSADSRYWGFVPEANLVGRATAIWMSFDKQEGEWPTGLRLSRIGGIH
# How it was run: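 Full-length His-tagged E. coli SPase (LepB, 2.5 nM) in 50 mM Tris-HCl pH 8.0, 100 mM NaCl, 10% glycerol, 1 mM EDTA, 1% NP-40 with two-fold compound dilutions; reaction started with fluorogenic abz/nitrotyrosine FRET peptide (added at 100 μM). Fluorescence (ex 314/em 416 nm) monitored 30 min at room temperature; IC50 from initial rates by nonlinear sigmoidal fit.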
# S. aureus SPase = target: T2, S. aureus SPase (Staphylococcus aureus, UniProt P0A070); test: as above; format: biochemical
# T2 construct: Full length His-tagged S. aureus SPase protein was expressed similarly; His-tag; made in house; host or cells: E. coli BL21(DE3)
# T2 sequence (P0A070 whole entry): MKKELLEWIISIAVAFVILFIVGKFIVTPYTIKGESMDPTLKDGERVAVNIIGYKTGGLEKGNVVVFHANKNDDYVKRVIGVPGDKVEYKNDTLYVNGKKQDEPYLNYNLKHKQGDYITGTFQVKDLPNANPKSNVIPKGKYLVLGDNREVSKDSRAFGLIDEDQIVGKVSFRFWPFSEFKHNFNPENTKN
# [8] = S. epidermidis RP62A, read-out: MIC
# [9] = S. pneumoniae D39, read-out: MIC
# [10] = NCTC8325, read-out: MIC class, S. aureus NCTC-8325 SpsB(P295)
# [11] = RP62A, read-out: MIC class, S. epidermidis RP62A
# [12] = D39, read-out: MIC class, S. pneumoniae D39
# [13] = fluorogenic peptide cleavage, read-out: IC50 class E. coli SPase
# [14] = fluorogenic peptide cleavage, read-out: IC50 class S. aureus SPase
SMILES,MIC (C. glutamicum DSM 44475) [µg/mL],MIC [1] [µg/mL],MIC [2] [µg/mL],MIC (R. equi DSM 6939) [µg/mL],MIC (S. agalactiae ATCC 13813) [µg/mL],MIC (S. agalactiae COH-1) [µg/mL],MIC (S. aureus ATCC 29213) [µg/mL],MIC ([3]; NCTC8325) [µg/mL],MIC [4] [µg/mL],MIC [5] [µg/mL],MIC [6] [µg/mL],MIC (S. epidermidis RP62A; [8]) [µg/mL],MIC (S. pneumoniae D39; [9]) [µg/mL],MIC (S. pneumoniae R800) [µg/mL],MIC (S. pyogenes ATCC 19615) [µg/mL],MIC (S. pyogenes M15448) [µg/mL],MIC (E. coli ATCC 25922) [µg/mL],"MIC [3, 10] [µg/mL]",MIC (S. epidermidis RP62A; [11]) [µg/mL],MIC (S. pneumoniae D39; [12]) [µg/mL],other results
CCCCCCCCCCCCCCCC(=O)N(C)[C@H](CO)C(=O)N[C@H](C)C(=O)NCC(=O)N(C)[C@@H]1C(=O)N[C@@H](C)C(=O)N[C@H](C(=O)N[C@@H](C)C(=O)N2CCC[C@H]2C(=O)O)Cc2ccc(O)c(c2)-c2cc1ccc2O [Compound 25],64,8,> 64,> 64,8,> 64,64,> 64,16,64,> 64,4,8,8,16,16,,,,,
CCCCCCCCCCCCCCCC(=O)N(C)[C@H](CO)C(=O)N[C@H](C)C(=O)NCC(=O)N(C)[C@@H]1C(=O)N[C@@H](C)C(=O)N[C@H](C(=O)NCC(N)=O)Cc2ccc(O)c(c2)-c2cc1ccc2O [Compound 26],32,8,> 64,64,16,> 64,> 64,> 64,32,> 64,> 64,4,8,16,8,> 64,,,,,
CCCCCCCCCCCCCCCC(=O)N(C)[C@H](CO)C(=O)N[C@H](C)C(=O)NCC(=O)N(C)[C@@H]1C(=O)N[C@@H](C)C(=O)N[C@H](C(=O)NCC(=O)N2CCCC2C(N)=O)Cc2ccc(O)c(c2)-c2cc1ccc2O (stereo partly shown) [Compound 27],32,8,> 64,> 64,32,32,> 64,> 64,32,> 64,> 64,8,16,32,32,32,,,,,
CCCCCCCCCCCCCCCC(=O)N(C)[C@H](CO)C(=O)N[C@H](C)C(=O)NCC(=O)N(C)[C@@H]1C(=O)N[C@@H](C)C(=O)N[C@H](C(=O)N[C@@H](C)C(=O)C(=O)N(C)C)Cc2ccc(O)c(c2)-c2cc1ccc2O [Compound 28],32,8,> 64,> 64,16,32,> 64,32,16,> 64,> 64,4,8,16,16,32,,,,,
CCCCCCCCCCC(=O)N(C)[C@H](CO)C(=O)N[C@H](C)C(=O)NCC(=O)N(C)[C@@H]1C(=O)N[C@@H](C)C(=O)N[C@H](C(=O)O)Cc2ccc(O)c(c2)-c2cc1ccc2O [Compound 85],,,,,,,,,,,,,,,,,> 64,> 64,< 8,> 64,MIC [7]: 16 to 64 µg/mL; MIC (S. aurues NCTC-8325): > 64 µg/mL; IC50 (E. coli SPase): < 1000 nM; IC50 (S. aureus SPase): 1000 to 10000 nM
CCCCCCCCCCCCC(=O)N(C)[C@H](CO)C(=O)N[C@H](C)C(=O)NCC(=O)N(C)[C@@H]1C(=O)N[C@@H](C)C(=O)N[C@H](C(=O)O)Cc2ccc(O)c(c2)-c2cc1ccc2O [Compound 86],,,,,,,,,,,,,,,,,> 64,< 8,16 to 64,16 to 64,MIC [7]: < 8 µg/mL; MIC (S. aurues NCTC-8325): > 64 µg/mL; IC50 (E. coli SPase): < 1000 nM; IC50 (S. aureus SPase): < 1000 nM
CCCCCCCCCCCCCCCC(=O)N[C@H](CO)C(=O)N[C@H](C)C(=O)N[C@@H](C)C(=O)N(C)[C@@H]1C(=O)N[C@@H](C)C(=O)N[C@H](C(=O)O)Cc2ccc(O)c(c2)-c2cc1ccc2O [Compound 87],,,,,,,,,,,,,,,,,> 64,> 64,< 8,> 64,MIC [7]: > 64 µg/mL; MIC (S. aurues NCTC-8325): > 64 µg/mL; IC50 (E. coli SPase): < 1000 nM; IC50 (S. aureus SPase): < 1000 nM
CCCCCCCCCCCCCCCC(=O)N(C)[C@H](CO)C(=O)N[C@H](C)C(=O)NCC(=O)N(C)[C@@H]1C(=O)N[C@@H](C)C(=O)N[C@H](C(=O)NCC(O)C(=O)NC)Cc2ccc(O)c(c2)-c2cc1ccc2O (stereo partly shown) [Compound 90],,,,,,,,,,,,,,,,,,,,,"MIC class, E. coli ATCC 25922 (E. coli ATCC 25922): a (MIC >64 μg/ml); MIC class, S. aureus NCTC-8325 SpsB(P295) [3]: a (MIC >64 μg/ml); MIC class, S. epidermidis RP62A (S. epidermidis RP62A; S. epidermidis RP62A): c (MIC ≤8 μg/ml); MIC class, S. pneumoniae D39 (S. pneumoniae D39; S. pneumoniae D39): c (MIC ≤8 μg/ml); MIC class, E. col ATCC 25922 LepB(P84L) [7]: a (MIC >64 μg/ml); MIC class, S. aurues NCTC-8325 (S. aurues NCTC-8325): a (MIC >64 μg/ml); IC50 (E. coli SPase; [13]): 1000 to 10000 nM; IC50 (S. aureus SPase; [14]): 1000 to 10000 nM"
CCCCCCCCCCCCCCCC(=O)N(C)[C@H](CO)C(=O)N[C@H](C)C(=O)N[C@@H](C)C(=O)N(C)[C@@H]1C(=O)N[C@@H](C)C(=O)N[C@H](C(=O)O)Cc2ccc(O)c(c2)-c2cc1ccc2O [Compound 91],,,,,,,,,,,,,,,,,> 64,> 64,< 8,< 8,MIC [7]: > 64 µg/mL; MIC (S. aurues NCTC-8325): > 64 µg/mL; IC50 (E. coli SPase): < 1000 nM; IC50 (S. aureus SPase): < 1000 nM
CCCCCCCCCCCCCCCC(=O)N(C)[C@H](CO)C(=O)N[C@H](C)C(=O)NCC(=O)N(C)[C@@H]1C(=O)N[C@@H](C)C(=O)N[C@H](C(=O)NCC=O)CCCc2ccc(O)c(c2)-c2cc1ccc2O [Compound 94],,,,,,,,,,,,,,,,,,,,,"MIC class, E. coli ATCC 25922 (E. coli ATCC 25922): a (MIC >64 μg/ml); MIC class, S. aureus NCTC-8325 SpsB(P295) [3]: a (MIC >64 μg/ml); MIC class, S. epidermidis RP62A (S. epidermidis RP62A; S. epidermidis RP62A): c (MIC ≤8 μg/ml); MIC class, S. pneumoniae D39 (S. pneumoniae D39; S. pneumoniae D39): b (MIC 16-64 μg/ml); MIC class, E. col ATCC 25922 LepB(P84L) [7]: a (MIC >64 μg/ml); MIC class, S. aurues NCTC-8325 (S. aurues NCTC-8325): a (MIC >64 μg/ml); IC50 (E. coli SPase; [13]): < 1000 nM; IC50 (S. aureus SPase; [14]): < 1000 nM"
